# “And” between values parts separate entries of the source, which are not always exact repeats. Identical values can stand only once.
# Tests used:
# [1] = system: Staphylococcus aureus; details: against Staphylococcus aureus; cited from earlier work
# [2] = Stability / precipitation of vancomycin in sols; format: physicochemical; details: water-free sol prepared as described by Böttcher et al
# Excerpt: Vancomycin is a water-soluble drug. Sols with nominal vancomycin (Vancomycin-HCL, NovaPlus) concentrations of 5, 10, and 20% by weight were made by adding corresponding amounts of vancomycin dissolved in DI water to the sol. Although sols with various vancomycin concentrations were stable for several days, only freshly prepared mixtures were used for the application of the coatings.
# Modification of the process of sol preparation was required to avoid the precipitation. It was achieved by adding water at the TEOS hydrolysis step. […] The sols with vancomycin concentrations varying from 3 to 30% by weight were stable over several days. The sols of modified compositions were successfully used for depositing vancomycin-loaded thin xerogel films to a Ti alloy substrate.
smiles,measurement,setting,value
CN[C@H](CC(C)C)C(=O)N[C@H]1C(=O)N[C@@H](CC(N)=O)C(=O)N[C@H]2C(=O)N[C@H]3C(=O)N[C@H](C(=O)N[C@H](C(=O)O)c4cc(O)cc(O)c4-c4cc3ccc4O)[C@H](O)c3ccc(c(Cl)c3)Oc3cc2cc(c3O[C@@H]2O[C@H](CO)[C@@H](O)[C@H](O)[C@H]2O[C@H]2C[C@](C)(N)[C@H](O)[C@H](C)O2)Oc2ccc(cc2Cl)[C@H]1O [vancomycin],Minimal Inhibitory Concentration (MIC),[1],1.5 to 3 µg/mL and 1.5 to 3.12 µg/mL
same,precipitation on adding a water solution of vancomycin to a sol,[2],immediate precipitation of the drug in the sol

# Source: patent publication US7850994B1, “Xerogel films for the controlled release of pharmaceutically active molecules” (The Trustees of the University of Pennsylvania, priority 2005, dated 2010)
